This is an account of results in paper PMC6912361, “Systemic Toxicity Reported for CDK8/19 Inhibitors CCT251921 and MSC2530818 Is Not Due to Target Inhibition” (Cells, 2019).

In general, IC50 refers to the concentration that gives 50% inhibition. The term Kd denotes the concentration at which binding is half-saturated.

The target in data set [1] is T1, CDK19 (Homo sapiens, UniProt Q9BWU1). Kind of data set: Cell-based QPCR assay of CDK8/19-dependent gene expression, HEK293 CDK8 single-knockout (8KO) cells. Also on record: CDK8 single-knockout (8KO); endogenous in cells; host or cells: HEK293 CDK8 knockout (8KO). The conditions noted are these: HEK293 8KO, 1 h pre-treatment, then 10 ng/mL TNFα 2 h.
Target sequence in this assay (Q9BWU1 whole entry): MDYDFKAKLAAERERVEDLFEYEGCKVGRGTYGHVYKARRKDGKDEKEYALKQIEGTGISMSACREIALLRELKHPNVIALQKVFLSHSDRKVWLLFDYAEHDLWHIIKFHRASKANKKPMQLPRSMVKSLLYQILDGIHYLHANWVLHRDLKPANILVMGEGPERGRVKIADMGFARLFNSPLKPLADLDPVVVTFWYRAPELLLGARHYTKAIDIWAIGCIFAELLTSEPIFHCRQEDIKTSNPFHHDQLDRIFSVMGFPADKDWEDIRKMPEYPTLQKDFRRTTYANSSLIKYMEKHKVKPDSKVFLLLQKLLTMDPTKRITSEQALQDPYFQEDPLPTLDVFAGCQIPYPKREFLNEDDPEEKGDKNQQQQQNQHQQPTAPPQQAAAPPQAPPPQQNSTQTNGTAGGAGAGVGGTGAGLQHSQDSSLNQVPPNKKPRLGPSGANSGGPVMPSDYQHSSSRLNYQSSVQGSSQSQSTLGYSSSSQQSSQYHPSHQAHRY
Target sequence in this assay (P24863 whole entry partner): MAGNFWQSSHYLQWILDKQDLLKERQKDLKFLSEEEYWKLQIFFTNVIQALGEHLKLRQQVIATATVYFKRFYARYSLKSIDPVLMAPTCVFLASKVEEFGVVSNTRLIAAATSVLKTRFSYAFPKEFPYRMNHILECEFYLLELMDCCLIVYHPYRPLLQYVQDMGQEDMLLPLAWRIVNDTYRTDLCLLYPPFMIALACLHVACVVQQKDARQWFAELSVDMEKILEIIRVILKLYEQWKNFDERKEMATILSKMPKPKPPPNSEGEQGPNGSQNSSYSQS
Procedure: CDK8/CDK19 single knockout and double knockout derivatives of human embryonic kidney (HEK) 293 cells (ATCC CRL-1573) were generated as previously described [18]. All cells were cultured in DMEM (high-glucose) media supplemented with 10% fetal bovine serum (FBS) and Penicillin-Streptomycin-Glutamine (1×) at 37 °C with 5% CO2 and routinely confirmed to be free of mycoplasma.
(§3) Total RNA was extracted using RNAeasy Mini Kit (Qiagen, Germantown, MD, USA) and 1 µg of total RNA was used to generate cDNA using iScript cDNA synthesis kit (Bio-Rad Laboratories, Hercules, CA, USA). Gene expression was quantified using iTaq Universal SYBR green super mix using CFX384 Real-Time System (Bio-Rad).
The IC50 values for different inhibitors in inhibiting CDK8/19-dependent gene expression were calculated using a three-parameter least square (ordinary) fitting method with GraphPad Prism 7.0 (GraphPad Software, San Diego, CA, USA). The Kruskal–Wallis non-parametric ANOVA was used to compare gene expression levels under no-inhibitor conditions between wild-type cells and knockout derivatives (8KO, 19KO and dKO) with GraphPad Prism 7.0.
(§4) Cells were pre-treated with different concentrations of CDK8/19 inhibitors for 1 h and then 10 ng/mL TNFα, an inducer of transcription factor NFκB, which is potentiated by CDK8/19 [5], was added for 2 h before RNA extraction. QPCR was carried out to quantify CDK8/19-regulated expression of NFκB-inducible genes CXCL1 and CXCL8 and the basal expression of MYC.
A further data set addresses CDK8 (Homo sapiens, UniProt P49336). Kind of data set: Cell-based QPCR assay of CDK8/19-dependent gene expression, HEK293 CDK19 single-knockout (19KO) cells. The conditions noted are these: HEK293 19KO, 1 h pre-treatment, then 10 ng/mL TNFα 2 h. Also on record: CDK19 single-knockout (19KO); endogenous in cells; host or cells: HEK293 CDK19 knockout (19KO).
For data set [2], the system named is CDK8/19. Kind of data set: Cell-based QPCR assay of CDK8/19-dependent gene expression, HEK293 parental (WT) cells. Also on record: species or system human.
Procedure: All cells were cultured in DMEM (high-glucose) media supplemented with 10% fetal bovine serum (FBS) and Penicillin-Streptomycin-Glutamine (1×) at 37 °C with 5% CO2 and routinely confirmed to be free of mycoplasma.
as §3
The IC50 values for different inhibitors in inhibiting CDK8/19-dependent gene expression were calculated using a three-parameter least square (ordinary) fitting method with GraphPad Prism 7.0 (GraphPad Software, San Diego, CA, USA).
as §4
For the next data set, the target named is T2, STK16 (Homo sapiens, UniProt O75716).
T2 construct: purchased DiscoverX
T2 sequence (O75716 whole entry): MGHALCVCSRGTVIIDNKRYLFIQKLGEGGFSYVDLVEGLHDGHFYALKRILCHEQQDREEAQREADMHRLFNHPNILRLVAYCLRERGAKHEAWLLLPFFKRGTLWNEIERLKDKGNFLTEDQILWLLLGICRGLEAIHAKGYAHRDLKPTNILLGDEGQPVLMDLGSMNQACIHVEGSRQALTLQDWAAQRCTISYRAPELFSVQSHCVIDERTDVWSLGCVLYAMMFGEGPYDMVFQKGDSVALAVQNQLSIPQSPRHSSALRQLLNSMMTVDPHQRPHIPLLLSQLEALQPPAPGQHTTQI
Put plainly: KdELECT Kd determination, STK16. The following applies: 11-point 3-fold serial dilution, duplicate; read-out: Kd for the inhibition of nucleotide binding, STK16. How it is done:
(§1) The screening platform employs an active site-directed competition binding assay to quantitatively measure interactions between test compounds and targeting kinases. […] To determine dissociation constants (Kds) of compounds on different targets, an 11-point 3-fold serial dilution of each test compound was tested in independent duplicate assays.
(§2) This assay has been previously used with many CDK8/19 inhibitors, including cortistatin A and its equipotent analog dCA [20, 21]; 15w.

The next data set addresses T3, JNK1 (MAPK8) (Homo sapiens, UniProt P45983).
T3 construct: purchased DiscoverX
Put plainly: KdELECT Kd determination, JNK1. The following applies: 11-point 3-fold serial dilution, duplicate; read-out: Kd for the inhibition of nucleotide binding, JNK1 (MAPK8). The method, then: as §1, §2

For data set [3], the target named is T4, PIKFYVE (Homo sapiens, UniProt Q9Y2I7). Kind of data set: Phase-contrast microscopy for intracellular large vesicular structures (PIKFYVE inhibition). In kind it is cell-based. Also on record: endogenous in cells; host or cells: HEK293-WT and HEK293-dKO. The following applies: 3 h; both WT and dKO 293 cells. The method, then:
To evaluate PIKFYVE kinase inhibition, HEK293-WT and HEK293-dKO cells were treated with CDK8/19 inhibitors at different drug concentrations for 3 h. Phase-contrast microscopy was then used to detect the formation of intracellular large vesicular structures, associated with PIKFYVE inhibition.

The next data set concerns rats. The following applies: cited from earlier work.
Data set [4] deals with T1, CDK19. Kind of data set: KdELECT Kd determination, CDK19. In kind it is binding. Also on record: purchased DiscoverX. How it is done:
To determine dissociation constants (Kds) of compounds on different targets, an 11-point 3-fold serial dilution of each test compound was tested in independent duplicate assays.
Target sequence in this assay (Q9BWU1 whole entry): as the sequence (Q9BWU1 whole entry) above

Details of data set [5]: method as in PMID 27935476. The following applies: colon cancer and leukemia mouse xenograft models; cited from earlier work.
On the set-up of data set [6]: method as in PMID 26796641. The conditions noted are these: mice, 30 mg/kg/d; cited from earlier work.
Data set [7] relates to non-dechorionated embryos of zebrafish TU strain. Put plainly: Zebrafish toxicity assay, non-dechorionated embryos (TU strain). The conditions noted are these: 2 μM; TU strain. The data set is classed as in vivo. How it is done:
The toxicity studies in non-dechorionated embryos of zebrafish TU strain were approved by the Institutional Animal Care and Use Committee of the University of South Carolina. The studies were conducted in sterile 24-well plates with one 24 hpf embryo in each well in a 1 mL volume of egg water. For each plate, 6 wells were treated with vehicle control and the other 18 wells (i.e., biological replicates) were treated with different CDK8/19 inhibitors at different concentrations. […] All the data from the plates with at least five healthy vehicle-treated embryos on day 5 were compiled together for final data analysis.

In another data set the test system is dogs. The following applies: cited from earlier work.
Data set [8] deals with T4, PIKFYVE. Put plainly: KdELECT Kd determination, PIKFYVE. The conditions noted are these: 11-point 3-fold serial dilution, duplicate; read-out: Kd for the inhibition of nucleotide binding, PIKFYVE. Also on record: purchased DiscoverX. How it is done:
as §1, §2

Data set [9] relates to STAT1 S727 phosphorylation. Put plainly: Western blot of STAT1 S727 phosphorylation in 293-dKO cells. The data set is classed as cell-based, human. The following applies: for CDK8/19-independent STAT1 S727 phosphorylation in dKO 293 cells, effect of cytotoxic drugs: 3 h, 50 μM etoposide, 50 nM Taxol; for Basal STAT1 S727 phosphorylation in dKO cells, effect of cytokines: 20 ng/mL EGF, 40 ng/mL TNFα, 1 h after 24 h serum starvation. The method, then:
Cells were cultured in 60-mm dishes and treated under different conditions before being lysed in RIPA lysis buffer with protease/phosphatase inhibitor cocktail. The protein concentration of extracts was determined using the DC protein assay (Bio-Rad Laboratories). Protein samples (50 μg) were resolved on 4–12% Express-Plus PAGE gels in Tris-MOPS (SDS) running buffer (GenScript, Piscataway, NJ, USA), transferred to PVDF membranes and incubated at 4 °C overnight with primary antibodies STAT1 (sc-592, Santa Cruz Biotechnology, Dallas, TX, USA) and pSTAT1-Ser727 (#8826, Cell Signaling Technology, Danvers, MA, USA) followed by anti-rabbit (NA934, GE Healthcare, Chicago, IL, USA) secondary antibodies. Bands were visualized with Western Lighting Plus ECL detection reagent (Perkin Elmer, Waltham, MA, USA) using ChemiDoc Touch™ (Bio-Rad). Images were analyzed using ImageLab (Bio-Rad) and ImageJ (version 1.52p) software for protein signal quantification.
In general terms: In western blotting, separated proteins are transferred to a membrane and probed.

The subject of data set [10] is CDK8/19. Put plainly: Wash-off study: stability of inhibition of CDK8/19-dependent gene expression in 293 cells. The conditions noted are these: 30 nM, 3 h, then drug-free media. In kind it is cell-based, human. The source says: We then asked if such toxicity could be associated with the stability of CDK8/19 inhibition. […] Then the drug-containing media were removed, cells were washed twice with PBS and cultured in fresh drug-free media for different periods of time before being lysed for RNA extraction and QPCR analysis of mRNA expression of MYC, JUN and ADAMTS1.

Where [11] appears, read: IC50, CXCL1 mRNA expression, 8KO.
Where [12] appears, read: IC50, CXCL8 mRNA expression, 8KO.
The mark [13] stands for this setting: read-out: IC50, CXCL1 mRNA expression, WT; HEK293 WT; 1 h pre-treatment, then 10 ng/mL TNFα 2 h; QPCR.
Setting [14] is: read-out: IC50, CXCL8 mRNA expression, WT; HEK293 WT; 1 h pre-treatment, then 10 ng/mL TNFα 2 h; QPCR.
Where [15] appears, read: read-out: IC50, MYC mRNA expression, WT; HEK293 WT; 1 h pre-treatment, then 10 ng/mL TNFα 2 h; QPCR.

Like-named read-outs stand apart in the source and are kept apart here.

Sequence of CDK8 (P49336 whole entry): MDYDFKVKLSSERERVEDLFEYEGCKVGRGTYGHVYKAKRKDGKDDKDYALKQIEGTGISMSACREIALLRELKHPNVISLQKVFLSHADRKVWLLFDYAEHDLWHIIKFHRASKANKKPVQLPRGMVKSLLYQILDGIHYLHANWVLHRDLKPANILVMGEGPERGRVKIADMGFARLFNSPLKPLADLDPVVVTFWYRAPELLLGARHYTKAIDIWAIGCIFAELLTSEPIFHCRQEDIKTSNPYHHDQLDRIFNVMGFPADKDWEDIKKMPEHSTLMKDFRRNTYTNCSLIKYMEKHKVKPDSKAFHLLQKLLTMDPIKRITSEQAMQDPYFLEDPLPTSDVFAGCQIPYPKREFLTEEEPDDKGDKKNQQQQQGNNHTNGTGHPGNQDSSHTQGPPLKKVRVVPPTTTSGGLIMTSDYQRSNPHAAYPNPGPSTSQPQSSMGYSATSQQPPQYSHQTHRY
Sequence of CDK8 (P24863 whole entry partner): as the sequence (P24863 whole entry partner) above
T4 sequence (Q9Y2I7 whole entry): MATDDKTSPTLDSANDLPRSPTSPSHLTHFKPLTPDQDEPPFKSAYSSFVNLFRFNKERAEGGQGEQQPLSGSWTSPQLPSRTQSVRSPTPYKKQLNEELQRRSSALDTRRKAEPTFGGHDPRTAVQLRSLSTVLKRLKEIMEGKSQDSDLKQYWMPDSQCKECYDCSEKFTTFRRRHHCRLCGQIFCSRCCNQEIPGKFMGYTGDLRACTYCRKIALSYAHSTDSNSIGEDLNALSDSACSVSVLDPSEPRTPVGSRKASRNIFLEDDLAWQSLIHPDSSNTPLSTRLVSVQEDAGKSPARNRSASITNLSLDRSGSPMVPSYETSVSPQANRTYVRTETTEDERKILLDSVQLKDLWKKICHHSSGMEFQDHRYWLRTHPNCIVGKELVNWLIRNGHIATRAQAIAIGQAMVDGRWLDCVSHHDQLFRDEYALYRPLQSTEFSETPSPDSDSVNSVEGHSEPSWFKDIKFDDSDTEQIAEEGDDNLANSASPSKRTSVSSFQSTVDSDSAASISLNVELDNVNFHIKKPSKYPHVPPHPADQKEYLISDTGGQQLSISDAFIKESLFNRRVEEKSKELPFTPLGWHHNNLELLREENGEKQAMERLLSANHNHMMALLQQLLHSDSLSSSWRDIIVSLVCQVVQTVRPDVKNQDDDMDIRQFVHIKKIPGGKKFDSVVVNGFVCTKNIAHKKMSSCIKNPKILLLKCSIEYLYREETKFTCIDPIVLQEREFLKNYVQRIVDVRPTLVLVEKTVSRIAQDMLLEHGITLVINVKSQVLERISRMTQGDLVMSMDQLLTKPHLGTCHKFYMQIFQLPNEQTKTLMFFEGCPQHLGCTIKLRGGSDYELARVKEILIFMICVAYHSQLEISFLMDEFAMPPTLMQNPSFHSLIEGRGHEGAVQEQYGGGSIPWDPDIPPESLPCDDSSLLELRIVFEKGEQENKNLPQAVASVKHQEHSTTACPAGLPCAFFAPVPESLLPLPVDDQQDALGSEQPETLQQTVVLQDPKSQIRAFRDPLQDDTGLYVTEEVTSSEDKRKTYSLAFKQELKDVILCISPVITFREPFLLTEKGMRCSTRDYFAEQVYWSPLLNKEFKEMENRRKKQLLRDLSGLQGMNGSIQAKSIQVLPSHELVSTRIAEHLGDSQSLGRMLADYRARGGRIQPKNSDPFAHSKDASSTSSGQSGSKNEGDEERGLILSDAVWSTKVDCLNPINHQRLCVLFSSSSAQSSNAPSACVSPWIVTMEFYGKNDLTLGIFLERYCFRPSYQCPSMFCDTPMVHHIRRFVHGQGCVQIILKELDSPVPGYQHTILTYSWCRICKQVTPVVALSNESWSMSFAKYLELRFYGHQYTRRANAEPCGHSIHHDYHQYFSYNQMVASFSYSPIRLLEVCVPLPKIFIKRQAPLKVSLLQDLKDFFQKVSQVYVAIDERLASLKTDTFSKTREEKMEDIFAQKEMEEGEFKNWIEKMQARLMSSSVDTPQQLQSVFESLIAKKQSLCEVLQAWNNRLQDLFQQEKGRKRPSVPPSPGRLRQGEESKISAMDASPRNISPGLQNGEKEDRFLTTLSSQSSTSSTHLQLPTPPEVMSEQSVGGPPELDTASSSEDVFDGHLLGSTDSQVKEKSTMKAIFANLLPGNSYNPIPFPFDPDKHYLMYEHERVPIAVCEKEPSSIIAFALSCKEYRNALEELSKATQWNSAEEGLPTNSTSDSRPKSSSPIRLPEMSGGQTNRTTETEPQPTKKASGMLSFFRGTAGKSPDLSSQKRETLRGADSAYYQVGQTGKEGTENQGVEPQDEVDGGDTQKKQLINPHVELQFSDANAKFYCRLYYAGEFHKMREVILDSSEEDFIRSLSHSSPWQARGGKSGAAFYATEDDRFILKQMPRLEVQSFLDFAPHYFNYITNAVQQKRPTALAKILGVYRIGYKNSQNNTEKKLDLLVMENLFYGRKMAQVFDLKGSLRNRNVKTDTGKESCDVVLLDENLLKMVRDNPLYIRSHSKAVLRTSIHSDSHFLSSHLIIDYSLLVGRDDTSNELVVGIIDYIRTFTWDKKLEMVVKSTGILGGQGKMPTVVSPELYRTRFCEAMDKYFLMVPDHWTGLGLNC
T3 sequence (P45983 whole entry): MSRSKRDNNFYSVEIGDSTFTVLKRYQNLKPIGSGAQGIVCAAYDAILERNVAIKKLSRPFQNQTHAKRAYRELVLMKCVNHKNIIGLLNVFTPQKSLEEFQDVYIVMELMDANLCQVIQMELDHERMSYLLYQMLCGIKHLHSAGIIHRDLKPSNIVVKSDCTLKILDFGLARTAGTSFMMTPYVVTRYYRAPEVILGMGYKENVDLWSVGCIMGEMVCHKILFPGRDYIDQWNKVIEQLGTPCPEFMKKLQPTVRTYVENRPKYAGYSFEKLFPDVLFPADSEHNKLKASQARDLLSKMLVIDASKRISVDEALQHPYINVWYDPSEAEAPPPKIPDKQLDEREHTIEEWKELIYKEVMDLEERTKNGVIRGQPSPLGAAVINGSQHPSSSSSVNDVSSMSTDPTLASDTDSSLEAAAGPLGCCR

With `CN(C)C(=O)Cc1ccc(N2CCCN(c3ccnc4sc(C(N)=O)c(N)c34)CC2)cc1` [15w], the IC50 on CDK19 [1] (read-out: IC50, CXCL1 mRNA expression, 8KO) was 5.4 nM; at CDK19 [1] (read-out: IC50, CXCL8 mRNA expression, 8KO), 5.4 nM; on CDK19 [1] (read-out: IC50, MYC mRNA expression, 8KO), 6.2 nM; at CDK8 (read-out: IC50, CXCL1 mRNA expression, 19KO), 5.2 nM; at CDK8 (read-out: IC50, CXCL8 mRNA expression, 19KO) it was 4.2 nM; at CDK8 (read-out: IC50, MYC mRNA expression, 19KO), 2.5 nM. For the same molecule, the IC50 with CDK8/19 [2] (HEK293 WT; 1 h pre-treatment, then 10 ng/mL TNFα 2 h; QPCR; read-out: IC50, CXCL1 mRNA expression, WT) was 6.1 nM; in the data set with CDK8/19 [2] (HEK293 WT; 1 h pre-treatment, then 10 ng/mL TNFα 2 h; QPCR; read-out: IC50, CXCL8 mRNA expression, WT), 5.5 nM; in the data set on CDK8/19 [2] (HEK293 WT; 1 h pre-treatment, then 10 ng/mL TNFα 2 h; QPCR; read-out: IC50, MYC mRNA expression, WT) it was 4 nM.
As for `Cn1ncc2cc(-c3cnc(N)c(Cl)c3N3CCC4(CCNC4=O)CC3)ccc21` [Cmpd3], the Kd was 420 nM at STK16, 390 nM on JNK1 (MAPK8), 59 nM at CDK19 [4] and 100 nM on PIKFYVE [8]. Also, the “Formation of large vesicular structures inside cells” value at PIKFYVE [3] is reported as “caused the formation of large vesicular structures”. For the same molecule, the IC50 is 3.1 nM at CDK19 [1] (setting [11]); 6.1 nM at CDK19 [1] (setting [12]); 0.9 nM at CDK19 [1] (IC50, MYC mRNA expression, 8KO); 3.2 nM in the data set on CDK8/19 [2] (setting [13]); 3.3 nM with CDK8/19 [2] (setting [14]); 4.1 nM with CDK8/19 [2] (setting [15]). Moreover, the Toxicity in rats result in the data set with rats was “multiple and striking toxicities, including lethality”. Also, the “Weight loss in mice” value in data set [5] is “detectable weight loss”. In addition, the “Total plasma concentration after 1 h” value in [6] was 14.1 µM. The “Total plasma concentration after 2 h” value in data set [6] is 6.9 µM. Besides, the “Total plasma concentration after 6 h” value in data set [6] is 0.8 µM. The “Toxicity in zebrafish assays at higher concentrations” value in data set [7] is recorded as “moderate but significant toxicity”. Also, the Toxicity in dogs entry in the data set with dogs is “multiple and striking toxicities, including lethality”.
As to `CC(=O)O[C@H]1C(=O)[C@@]2(C)[C@H]([C@H](OC(=O)c3ccccc3)[C@]3(O)C[C@H](OC(=O)[C@H](O)[C@@H](NC(=O)c4ccccc4)c4ccccc4)C(C)=C1C3(C)C)[C@]1(OC(C)=O)CO[C@@H]1C[C@@H]2O` [Taxol], in data set [9], the “CDK8/19-independent STAT1 S727 phosphorylation in dKO 293 cells, effect of cytotoxic drugs” value was “increased”.
On to `CN(C)C1CC23CCC4(O2)C(=CCC2(C)C(c5ccc6ccncc6c5)=CCC24)C=C3C(O)C1O` (stereo not drawn) [dCA, 16-didehydro-cortistatin A], for which, in the data set on CDK8/19 [10], the “Stability of CDK8/19 inhibition after wash-off (MYC, JUN, ADAMTS1 mRNA)” value is reported as “by far the most stable”. Besides, the IC50 on CDK19 [1] (setting [11]) came out at 1.1 nM; at CDK19 [1] (setting [12]), 0.8 nM; on CDK19 [1] (IC50, MYC mRNA expression, 8KO), 0.6 nM; on CDK8 (IC50, CXCL1 mRNA expression, 19KO) it was 1.4 nM; at CDK8 (IC50, CXCL8 mRNA expression, 19KO) it was 1 nM; at CDK8 (IC50, MYC mRNA expression, 19KO), 0.5 nM. Also, the IC50 came to 1.3 nM with CDK8/19 [2] (setting [13]), 1.4 nM with CDK8/19 [2] (setting [14]) and 1.5 nM with CDK8/19 [2] (setting [15]). In addition, the “Toxicity in zebrafish assays at higher concentrations” value in data set [7] is “moderate but significant toxicity”.
`COc1cc([C@@H]2c3cc4c(cc3[C@@H](O[C@@H]3O[C@@H]5CO[C@@H](C)O[C@H]5[C@H](O)[C@H]3O)[C@H]3COC(=O)[C@H]23)OCO4)cc(OC)c1O` [etoposide]: the “CDK8/19-independent STAT1 S727 phosphorylation in dKO 293 cells, effect of cytotoxic drugs” value in data set [9] was “increased”.
On to “EGF: Recombinant human epidermal growth factor (NSDSECPLSHDGYCLHDGVCMYIEALDKYACNCVVGYIGERCQYRDLKWWELR; UniProt P01133 971-1023, looked up)”, for which the “Basal STAT1 S727 phosphorylation in dKO cells, effect of cytokines” value in data set [9] was “increased”.
Take TNFα: in data set [9], the “Basal STAT1 S727 phosphorylation in dKO cells, effect of cytokines” value was “increased”.
